Assays:
[1] = target: T1, Cholecystokinin receptor type A (Rattus norvegicus, UniProt P30551); assay: Displacement of [125I]D-Tyr-Gly-[(Nle28,31)CCK-26-33] from rat CCK receptor expressed in CHO cells; format: cell-based
T1 sequence (P30551 whole entry): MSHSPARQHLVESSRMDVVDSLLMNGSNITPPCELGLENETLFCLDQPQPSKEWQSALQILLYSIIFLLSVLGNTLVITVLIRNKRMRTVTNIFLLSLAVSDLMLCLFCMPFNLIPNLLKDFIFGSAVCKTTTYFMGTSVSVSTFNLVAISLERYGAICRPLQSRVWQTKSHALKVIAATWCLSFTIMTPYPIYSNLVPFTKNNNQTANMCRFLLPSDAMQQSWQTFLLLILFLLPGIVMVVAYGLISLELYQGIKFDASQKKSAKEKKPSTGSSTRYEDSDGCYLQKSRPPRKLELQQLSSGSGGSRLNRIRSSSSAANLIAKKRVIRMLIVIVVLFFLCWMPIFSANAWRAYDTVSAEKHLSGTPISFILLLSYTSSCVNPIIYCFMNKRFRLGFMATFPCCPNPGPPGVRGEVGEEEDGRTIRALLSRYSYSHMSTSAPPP

[2] = target: T2, Cholecystokinin receptor type A (Rattus norvegicus) (UniProt P30551); assay: Activity at CCK receptor in SD rat at 1 uM expressed in pancreatic acinar cell line; format: functional; settings: filed as antagonist
T2 sequence (whole entry): T1 sequence (P30551 whole entry)

[3] = target: T1, Cholecystokinin receptor type A; assay: Intrinsic agonistic activity at CCK receptor in SD rat at 1 uM expressed in pancreatic acinar cell line; format: functional

Structure (SMILES)	IC50 [1] [µM]	Activity [2]	EC50 [3] [µM]
COc1ccc(N(C(=O)CN2C(=O)[C@@H](NC(=O)Nc3cccc(C(=O)c4ccccc4)c3)C(=O)N(c3ccccc3)c3ccccc32)C(C)C)cc1	0.71	Antagonist	–
COc1ccc(N(C)C(=O)CN2C(=O)[C@H](NC(=O)Nc3cccc(C(=O)c4ccccc4)c3)C(=O)N(c3ccccc3)c3ccccc32)cc1	0.49	–	–
COc1ccc(N(C)C(=O)CN2C(=O)[C@@H](NC(=O)Nc3cccc(C(=O)c4ccccc4)c3)C(=O)N(c3ccccc3)c3ccccc32)cc1	0.47	–	–
COc1ccc(N(C(=O)CN2C(=O)[C@H](NC(=O)Nc3cccc(C(=O)c4ccccc4)c3)C(=O)N(c3ccccc3)c3ccccc32)C(C)C)cc1	0.061	–	0.15
